# Experimental data reported in patent US7868026B2, “Therapeutic compounds” (Pfizer Inc., priority 2005, dated 2011).
# Read-outs that look alike come from different tables or passages of the source.
# Tests used:
# Format in all cases: biochemical
# CYP3A4 [1] = target: T1, CYP3A4 (Homo sapiens, UniProt P08684); assay: Determination of compound Kiapp against recombinant CYP3A4 enzyme (BFC fluorescent substrate)
# Procedure, shortened: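 Recombinant CYP3A4 (5.5 or 8 nM, with or without b5 depending on source) pre-incubated with inhibitor ≥30 min at room temperature in 100 mM sodium phosphate pH 7.0, 5 mM TCEP, 2% DMF. Reaction started with 200 uM NADPH and 5 uM BFC; initial fluorescence rates over 5 min fitted to Morrison tight-binding (non-partial) or Szedlacsek (partial) equations for Kiapp.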
# CYP3A4 [2] = target: T1, CYP3A4; assay: Determination of IC50 against CYP3A4 by measurement of inhibition of testosterone metabolism (human liver microsomes, 6-β-OH-testosterone by LC-MS/MS); parameters: 0.1 mg/mL human liver microsomes; settings: read-out: IC50 (Testo.)
# Procedure, shortened: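 Human liver microsomes (0.1 mg/mL) incubated with 25 μM testosterone and 1 mM NADPH in 100 mM potassium phosphate, pH 7.4, for eight minutes. 6-β-OH-testosterone measured by LC-MS/MS in MRM mode against an internal standard and quantified from a metabolite standard curve.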
# CYP3A4 [3] = target: T1, CYP3A4; assay: Determination of IC50 against CYP3A4 by measurement of inhibition of midazolam metabolism (human liver microsomes, 1-hydroxymidazolam by LC-MS/MS); parameters: 0.1 mg/mL human liver microsomes; settings: 2 μM midazolam, 0.1 mg/mL human liver microsomes
# Procedure, shortened: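 Human liver microsomes (0.1 mg/mL) incubated 8 min with 2 μM midazolam and 1 mM NADPH in 100 mM potassium phosphate, pH 7.4. 1-Hydroxymidazolam quantified by LC-MS/MS (MRM) as peak area ratio to internal standard against a metabolite standard curve.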
# [4] = Baculo. enzyme preparation, read-out: Kiapp (BFC, Baculo.)
# [5] = Super. enzyme preparation, read-out: Kiapp (BFC, Super.)
# T1 sequence (P08684 whole entry): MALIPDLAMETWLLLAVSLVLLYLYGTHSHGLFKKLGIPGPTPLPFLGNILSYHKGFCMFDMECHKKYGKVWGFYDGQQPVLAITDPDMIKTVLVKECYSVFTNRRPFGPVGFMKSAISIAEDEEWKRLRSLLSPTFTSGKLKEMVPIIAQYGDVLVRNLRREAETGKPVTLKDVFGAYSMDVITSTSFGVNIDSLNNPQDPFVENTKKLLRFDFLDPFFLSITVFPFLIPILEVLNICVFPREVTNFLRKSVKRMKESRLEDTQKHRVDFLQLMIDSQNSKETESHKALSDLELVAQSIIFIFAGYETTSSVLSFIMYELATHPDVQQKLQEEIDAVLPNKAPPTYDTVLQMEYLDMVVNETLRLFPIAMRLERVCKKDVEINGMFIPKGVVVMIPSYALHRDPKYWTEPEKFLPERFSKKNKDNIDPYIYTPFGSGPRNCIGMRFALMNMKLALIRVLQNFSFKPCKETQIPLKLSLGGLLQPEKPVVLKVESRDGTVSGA
compound,measurement,setting,value
"COc1cncc(NS(=O)(=O)c2ccccc2C(=O)N[C@H]2C[C@@H]2c2ccccc2)c1 [Example 232, 2-{[(5-methoxypyridin-3-yl)amino]sulfonyl}-N-[(1S2R)-2-phenylcyclopropyl]benzamide]",Ki,CYP3A4 [1]; [4],99.4 nM
same,Ki,CYP3A4 [1]; [5],11.5 nM
same,IC50,CYP3A4 [2],32 nM
same,IC50,CYP3A4 [3],28 nM
"COc1ccc(CNC(=O)c2ccccc2S(=O)(=O)Nc2cncc(C)c2)cc1 [Example 361, N-(4-methoxybenzyl)-2-{[(5-methylpyridin-3-yl)amino]sulfonyl}benzamide]",Ki,CYP3A4 [1]; [4],274 nM
same,Ki,CYP3A4 [1]; [5],41.4 nM
same,IC50,CYP3A4 [2],40 nM
same,IC50,CYP3A4 [3],16 nM
"Cc1cccc(CNC(=O)c2ccccc2S(=O)(=O)Nc2cccnc2)c1 [Example 80, N-(3-methylbenzyl)-2-[(pyridin-3-ylamino)sulfonyl]benzamide]",Ki,CYP3A4 [1]; [4],206 nM
same,Ki,CYP3A4 [1]; [5],4.1 nM
same,IC50,CYP3A4 [2],71 nM
same,IC50,CYP3A4 [3],25 nM
"COCCN(C)C(=O)c1ccccc1S(=O)(=O)Nc1cncc(C)c1 [Example 162, N-(2-methoxyethyl)-N-methyl-2-{[(5-methylpyridin-3-yl)amino]sulfonyl}benzamide]",Ki,CYP3A4 [1]; [4],469 nM
same,Ki,CYP3A4 [1]; [5],99.9 nM
same,IC50,CYP3A4 [2],170 nM
same,IC50,CYP3A4 [3],93 nM
"CN(Cc1ccc(F)c(F)c1)C(=O)c1ccccc1S(=O)(=O)Nc1cccnc1 [Example 284, N-(3,4-difluorobenzyl)-N-methyl-2-[(pyridin-3-ylamino)sulfonyl]benzamide]",Ki,CYP3A4 [1]; [4],99.8 nM
same,Ki,CYP3A4 [1]; [5],14.2 nM
same,IC50,CYP3A4 [2],49 nM
same,IC50,CYP3A4 [3],15 nM
"COc1cncc(NS(=O)(=O)c2ccccc2C(=O)NC(C)C2CC2)c1 (stereo not shown) [Example 311, N-(1-cyclopropylethyl)-2-{[(5-methoxypyridin-3-yl)amino]sulfonyl}benzamide]",Ki,CYP3A4 [1]; [4],209 nM
same,Ki,CYP3A4 [1]; [5],76.2 nM
same,IC50,CYP3A4 [2],73 nM
same,IC50,CYP3A4 [3],34 nM
"COc1cncc(NS(=O)(=O)c2ccccc2C(=O)NCc2ccc(F)cc2Cl)c1 [Example 183, N-(2-chloro-4-fluorobenzyl)-2-{[(5-methoxypyridin-3-yl)amino]sulfonyl}benzamide]",Ki,CYP3A4 [1]; [4],22.6 nM
same,Ki,CYP3A4 [1]; [5],2 nM
same,IC50,CYP3A4 [2],11 nM
same,IC50,CYP3A4 [3],5 nM
"CCCN(CC)C(=O)c1ccccc1S(=O)(=O)Nc1cncc(OC)c1 [Example 195, N-ethyl-2-{[(5-methoxypyridin-3-yl)amino]sulfonyl}-N-propylbenzamide]",Ki,CYP3A4 [1]; [4],70.8 nM
same,Ki,CYP3A4 [1]; [5],35.6 nM
same,IC50,CYP3A4 [2],32 nM
same,IC50,CYP3A4 [3],15 nM
"COc1cncc(NS(=O)(=O)c2ccc(F)cc2C(=O)NCCC(C)C)c1 [Example 303, 5-fluoro-2-{[(5-methoxypyridin-3-yl)amino]sulfonyl}-N-(3-methylbutyl)benzamide]",Ki,CYP3A4 [1]; [4],118 nM
same,Ki,CYP3A4 [1]; [5],31.6 nM
same,IC50,CYP3A4 [2],156 nM
same,IC50,CYP3A4 [3],30 nM
"CCC(CC)NC(=O)c1ccccc1S(=O)(=O)Nc1cncc(OC)c1 [Example 193, N-(1-ethylpropyl)-2-{[(5-methoxypyridin-3-yl)amino]sulfonyl}benzamide]",Ki,CYP3A4 [1]; [4],41.2 nM
same,Ki,CYP3A4 [1]; [5],21.7 nM
same,IC50,CYP3A4 [2],27 nM
same,IC50,CYP3A4 [3],13 nM
"O=C(NCCc1ccccc1)c1ccccc1S(=O)(=O)Nc1cccnc1 [Example 77, N-(2-phenylethyl)-2-[(pyridin-3-ylamino)sulfonyl]benzamide]",Ki,CYP3A4 [1]; [4],131 nM
same,Ki,CYP3A4 [1]; [5],5.6 nM
same,IC50,CYP3A4 [2],192 nM
same,IC50,CYP3A4 [3],23 nM
"COCCN(C)C(=O)c1ccccc1S(=O)(=O)Nc1cnccc1OC [Example 161, N-(2-methoxyethyl)-2-{[(4-methoxypyridin-3-yl)amino]sulfonyl}-N-methylbenzamide]",Ki,CYP3A4 [1]; [4],> 1000 nM
same,Ki,CYP3A4 [1]; [5],418 nM
same,IC50,CYP3A4 [2],371 nM
same,IC50,CYP3A4 [3],308 nM
"COc1cncc(NS(=O)(=O)c2ccccc2C(=O)NCCC(C)C)c1 [Example 379, 2-{[(5-methoxypyridin-3-yl)amino]sulfonyl}-N-(3-methylbutyl)benzamide]",Ki,CYP3A4 [1]; [4],120 nM
same,Ki,CYP3A4 [1]; [5],24.6 nM
same,IC50,CYP3A4 [2],7 nM
same,IC50,CYP3A4 [3],8 nM
"O=C(NCCOc1ccccc1)c1ccccc1S(=O)(=O)Nc1cccnc1 [Example 56, N-(2-phenoxyethyl)-2-[(pyridin-3-ylamino)sulfonyl]benzamide]",Ki,CYP3A4 [1]; [4],340 nM
same,Ki,CYP3A4 [1]; [5],22.4 nM
same,IC50,CYP3A4 [2],62 nM
same,IC50,CYP3A4 [3],48.9 nM
"COc1cncc(NS(=O)(=O)c2ccccc2C(=O)N(C)CCOc2ccccc2)c1 [Example 173, 2-{[(5-methoxypyridin-3-yl)amino]sulfonyl}-N-methyl-N-(2-phenoxyethyl)benzamide]",Ki,CYP3A4 [1]; [4],104 nM
same,Ki,CYP3A4 [1]; [5],9.9 nM
same,IC50,CYP3A4 [2],18 nM
same,IC50,CYP3A4 [3],16 nM
"COc1cncc(NS(=O)(=O)c2ccccc2C(=O)N2CCOCC2)c1 [Example 367, N-(5-methoxypyridin-3-yl)-2-(morpholin-4-ylcarbonyl)benzenesulfonamide]",Ki,CYP3A4 [1]; [4],570 nM
same,Ki,CYP3A4 [1]; [5],148 nM
same,IC50,CYP3A4 [2],> 750 nM
same,IC50,CYP3A4 [3],317 nM
